System: MV-4-11 cells
Test: Gene expression microarray analysis (Affymetrix PrimeView) and GSEA
Assay type: cell-based, human
Set-up: RFU PODN (11730768_x_at) / Fold change /veh PODN (11730768_x_at) / RFU LINC00158 (11744669_a_at) / Fold change /veh LINC00158 (11744669_a_at) / RFU DUSP10 (11751237_a_at) / Fold change /veh DUSP10 (11751237_a_at) / RFU ID3 (11757404_x_at) / Fold change /veh ID3 (11757404_x_at) / RFU PLEKHG5 (11737974_s_at) / Fold change /veh PLEKHG5 (11737974_s_at) / RFU LRRC4B (11730491_at) / Fold change /veh LRRC4B (11730491_at) / RFU GIMAP4 (11747438_a_at) / Fold change /veh GIMAP4 (11747438_a_at) / RFU KRT8 (11758183_x_at) / Fold change /veh KRT8 (11758183_x_at) / RFU CNN1 (11734310_a_at) / Fold change /veh CNN1 (11734310_a_at) / RFU VPS37D (11726825_at) / Fold change /veh VPS37D (11726825_at) / RFU C10orf10 (11716522_x_at) / Fold change /veh C10orf10 (11716522_x_at) / RFU KIR2DL2 /// KIR2DL4 /// KIR2DL5A /// KIR2DL5B /// KIR2DS1 /// KIR2DS2 /// KIR2DS3 /// KIR2DS4 /// KIR3DL3 /// KIR3DL3 /// KIR3DS1 (11738374_at) / Fold change /veh KIR2DL2 /// KIR2DL4 /// KIR2DL5A /// KIR2DL5B /// KIR2DS1 /// KIR2DS2 /// KIR2DS3 /// KIR2DS4 /// KIR3DL3 /// KIR3DL3 /// KIR3DS1 (11738374_at) / RFU C1QL1 (11718748_at) / Fold change /veh C1QL1 (11718748_at) / RFU TMPRSS4 (11747572_a_at) / Fold change /veh TMPRSS4 (11747572_a_at) / RFU HAMP (11756126_x_at) / Fold change /veh HAMP (11756126_x_at) / RFU RNFT2 (11725882_a_at) / Fold change /veh RNFT2 (11725882_a_at) / RFU NR4A2 (11747474_a_at) / Fold change /veh NR4A2 (11747474_a_at) / RFU ABCC12 (11746883_a_at) / Fold change /veh ABCC12 (11746883_a_at) / RFU TMEM136 (11760407_x_at) / Fold change /veh TMEM136 (11760407_x_at) / RFU CLDN22 /// WWC2 (11732394_at) / Fold change /veh CLDN22 /// WWC2 (11732394_at) / RFU HLA-DPB1 (11760878_x_at) / Fold change /veh HLA-DPB1 (11760878_x_at) / RFU SPINT1 (11716480_a_at) / Fold change /veh SPINT1 (11716480_a_at) / RFU GAP43 (11754022_s_at) / Fold change /veh GAP43 (11754022_s_at) / RFU A4GNT (11735810_at) / Fold change /veh A4GNT (11735810_at) / RFU PRB3 (11715151_x_at) / Fold change /veh PRB3 (11715151_x_at) / RFU TUBB4B (11761932_at) / Fold change /veh TUBB4B (11761932_at) / RFU CAPN14 (11732068_a_at) / Fold change /veh CAPN14 (11732068_a_at) / RFU TMCC2 (11721928_a_at) / Fold change /veh TMCC2 (11721928_a_at) / RFU IRGQ (11745062_a_at) / Fold change /veh IRGQ (11745062_a_at) / RFU FAM174B (11720279_a_at) / Fold change /veh FAM174B (11720279_a_at) / RFU TMPRSS4 (11748680_a_at) / Fold change /veh TMPRSS4 (11748680_a_at) / RFU FAM212B (11763350_a_at) / Fold change /veh FAM212B (11763350_a_at) / RFU PLEKHG5 (11743358_a_at) / Fold change /veh PLEKHG5 (11743358_a_at) / RFU ZSCAN30 (11745921_a_at) / Fold change /veh ZSCAN30 (11745921_a_at) / RFU CMKLR1 (11741424_a_at) / Fold change /veh CMKLR1 (11741424_a_at) / RFU LOC101060620 /// MAPK8IP1 (11723275_at) / Fold change /veh LOC101060620 /// MAPK8IP1 (11723275_at) / RFU SPTSSB (11747773_x_at) / Fold change /veh SPTSSB (11747773_x_at) / RFU PRSS12 (11739890_at) / Fold change /veh PRSS12 (11739890_at) / RFU BIN1 (11741810_x_at) / Fold change /veh BIN1 (11741810_x_at) / RFU WNT11 (11732464_a_at) / Fold change /veh WNT11 (11732464_a_at) / RFU C10orf10 (11716521_a_at) / Fold change /veh C10orf10 (11716521_a_at) / RFU C5orf56 (11738089_at) / Fold change /veh C5orf56 (11738089_at) / RFU CYB561 (11721691_x_at) / Fold change /veh CYB561 (11721691_x_at) / RFU ANKRD19P (11752326_a_at) / Fold change /veh ANKRD19P (11752326_a_at) / RFU OR2T12 /// OR2T33 /// OR2T8 (11738714_s_at) / Fold change /veh OR2T12 /// OR2T33 /// OR2T8 (11738714_s_at) / RFU VCAN (11748164_a_at) / Fold change /veh VCAN (11748164_a_at) / RFU JSRP1 (11732532_at) / Fold change /veh JSRP1 (11732532_at) / RFU KRTAP10-11 (11738290_x_at) / Fold change /veh KRTAP10-11 (11738290_x_at) / RFU MYO3A (11730013_a_at) / Fold change /veh MYO3A (11730013_a_at) / RFU EBF3 (11725865_a_at) / Fold change /veh EBF3 (11725865_a_at) / RFU CAMK2N1 (11719241_x_at) / Fold change /veh CAMK2N1 (11719241_x_at) / RFU C5orf56 (11738088_a_at) / Fold change /veh C5orf56 (11738088_a_at) / RFU OLFML3 (11715873_a_at) / Fold change /veh OLFML3 (11715873_a_at) / RFU LOC100653217 /// NTM (11731650_a_at) / Fold change /veh LOC100653217 /// NTM (11731650_a_at) / RFU MAPK11 (11762145_a_at) / Fold change /veh MAPK11 (11762145_a_at) / RFU FIZ1 (11724087_x_at) / Fold change /veh FIZ1 (11724087_x_at) / RFU OASL (11726364_x_at) / Fold change /veh OASL (11726364_x_at) / RFU SOX15 (11748057_x_at) / Fold change /veh SOX15 (11748057_x_at) / RFU CD79A (11719716_a_at) / Fold change /veh CD79A (11719716_a_at) / RFU HIST1H1D (11736915_at) / Fold change /veh HIST1H1D (11736915_at) / RFU CASKIN2 (11723855_a_at) / Fold change /veh CASKIN2 (11723855_a_at) / RFU LOC730098 (11760151_x_at) / Fold change /veh LOC730098 (11760151_x_at) / RFU OR4N2 (11742367_at) / Fold change /veh OR4N2 (11742367_at) / RFU PRRT2 (11749266_a_at) / Fold change /veh PRRT2 (11749266_a_at) / RFU SNX32 (11753110_a_at) / Fold change /veh SNX32 (11753110_a_at) / RFU CDHR5 (11726645_a_at) / Fold change /veh CDHR5 (11726645_a_at) / RFU RCAN1 (11760418_a_at) / Fold change /veh RCAN1 (11760418_a_at) / RFU FAM167A (11723789_a_at) / Fold change /veh FAM167A (11723789_a_at) / RFU FAM26E (11764081_at) / Fold change /veh FAM26E (11764081_at) / RFU ISYNA1 (11749810_s_at) / Fold change /veh ISYNA1 (11749810_s_at) / RFU ACY1 (11761880_at) / Fold change /veh ACY1 (11761880_at) / RFU 11764098_at / Fold change /veh 11764098_at / RFU SAMD14 (11745864_x_at) / Fold change /veh SAMD14 (11745864_x_at) / RFU NPB (11741838_a_at) / Fold change /veh NPB (11741838_a_at) / RFU TMPRSS6 (11731388_a_at) / Fold change /veh TMPRSS6 (11731388_a_at) / RFU KRTAP10-2 (11738614_at) / Fold change /veh KRTAP10-2 (11738614_at) / RFU ARHGAP8 /// PRR5-ARHGAP8 (11727945_x_at) / Fold change /veh ARHGAP8 /// PRR5-ARHGAP8 (11727945_x_at) / RFU KRTAP5-7 /// NADSYN1 (11734609_at) / Fold change /veh KRTAP5-7 /// NADSYN1 (11734609_at) / RFU RASL12 (11751679_a_at) / Fold change /veh RASL12 (11751679_a_at) / RFU CDKN2B (11736163_a_at) / Fold change /veh CDKN2B (11736163_a_at) / RFU PRF1 (11729649_at) / Fold change /veh PRF1 (11729649_at) / RFU, ZNF638 /// ZNF638-IT1 / Fold change vs veh, ZNF638 /// ZNF638-IT1 / RFU, PANK3 / Fold change vs veh, PANK3 / RFU, SH3YL1 / Fold change vs veh, SH3YL1 / RFU, ZEB2 / Fold change vs veh, ZEB2 / RFU, NRIP1 / Fold change vs veh, NRIP1 / RFU, PTTG1IP / Fold change vs veh, PTTG1IP / RFU, CAPN2 / Fold change vs veh, CAPN2 / RFU, MED14 / Fold change vs veh, MED14 / RFU, SNORA58 / Fold change vs veh, SNORA58 / RFU, C1orf63 / Fold change vs veh, C1orf63 / RFU, LRRFIP1 / Fold change vs veh, LRRFIP1 / RFU, NDUFAF7 / Fold change vs veh, NDUFAF7 / RFU, SLC12A2 / Fold change vs veh, SLC12A2 / RFU, IBTK / Fold change vs veh, IBTK / RFU, ESF1 / Fold change vs veh, ESF1 / Fold change vs veh, TMEM50B / RFU, TAOK1 / Fold change vs veh, TAOK1 / RFU, ACBD3 / Fold change vs veh, ACBD3 / RFU, TMA16 / Fold change vs veh, TMA16 / RFU, RWDD3 / Fold change vs veh, RWDD3 / RFU, BCAT1 / Fold change vs veh, BCAT1 / RFU, EDEM3 / Fold change vs veh, EDEM3 / RFU, TMEM33 / Fold change vs veh, TMEM33 / RFU, WDR75 / Fold change vs veh, WDR75 / RFU, AHCTF1 / Fold change vs veh, AHCTF1 / RFU, TFRC / Fold change vs veh, TFRC / RFU, ZDHHC17 / Fold change vs veh, ZDHHC17 / RFU, NOM1 / Fold change vs veh, NOM1 / RFU, ARL8B / Fold change vs veh, ARL8B / RFU, ZBTB11 / Fold change vs veh, ZBTB11 / RFU, TAMM41 / Fold change vs veh, TAMM41 / RFU, KIAA1704 /// LOC100996395 / Fold change vs veh, KIAA1704 /// LOC100996395 / RFU, ING1 / Fold change vs veh, ING1 / RFU, TRMT61B / Fold change vs veh, TRMT61B / RFU, FUBP3 / Fold change vs veh, FUBP3 / RFU, TP53 / Fold change vs veh, TP53 / RFU, TNKS2 / Fold change vs veh, TNKS2 / RFU, ZFP14 / Fold change vs veh, ZFP14 / RFU, ACTR2 / Fold change vs veh, ACTR2 / RFU, PPP3R1 / Fold change vs veh, PPP3R1 / RFU, PIK3R1 / Fold change vs veh, PIK3R1 / RFU, HNRNPA1 / Fold change vs veh, HNRNPA1 / RFU, RNF170 / Fold change vs veh, RNF170 / RFU, ZNF28 / Fold change vs veh, ZNF28 / RFU, RNGTT / Fold change vs veh, RNGTT / RFU, OGT / Fold change vs veh, OGT / RFU, BRD1 / Fold change vs veh, BRD1 / RFU, MARS / Fold change vs veh, MARS / RFU, ZNF655 / Fold change vs veh, ZNF655 / RFU, FAHD1 / Fold change vs veh, FAHD1 / RFU, BDP1 / Fold change vs veh, BDP1 / RFU, LRRCC1 / Fold change vs veh, LRRCC1 / RFU, ARID1A / Fold change vs veh, ARID1A / RFU, ZNF146 / Fold change vs veh, ZNF146 / RFU, ZNF330 / Fold change vs veh, ZNF330 / RFU, GPN3 / Fold change vs veh, GPN3 / RFU, C9orf123 / Fold change vs veh, C9orf123 / RFU, N4BP2L2 / Fold change vs veh, N4BP2L2 / RFU, ARFIP1 / Fold change vs veh, ARFIP1 / RFU, FAM179B / Fold change vs veh, FAM179B / RFU, BCL10 / Fold change vs veh, BCL10 / RFU, UHRF1BP1L / Fold change vs veh, UHRF1BP1L / RFU, BET1 / Fold change vs veh, BET1 / RFU, CNOT2 / Fold change vs veh, CNOT2 / RFU, ZNF268 / Fold change vs veh, ZNF268 / Fold change vs veh, ZNF507 / RFU, DGCR2 / Fold change vs veh, DGCR2 / RFU, WDSUB1 / Fold change vs veh, WDSUB1 / Fold change vs veh, HSP90B1 /// MIR3652 / RFU, ADSS / Fold change vs veh, ADSS / RFU, GK / Fold change vs veh, GK / RFU, ZNF148 / Fold change vs veh, ZNF148 / RFU, TAF9 / Fold change vs veh, TAF9 / RFU, SLC1A5 / Fold change vs veh, SLC1A5 / RFU, SLMO2 / Fold change vs veh, SLMO2 / RFU, ABCC4 / Fold change vs veh, ABCC4 / RFU, LOC101060439 /// RAP1B / Fold change vs veh, LOC101060439 /// RAP1B / RFU, RFX7 / Fold change vs veh, RFX7 / RFU, GTPBP10 / Fold change vs veh, GTPBP10 / RFU, CNEP1R1 / Fold change vs veh, CNEP1R1 / RFU, BIVM-ERCC5 /// ERCC5 / Fold change vs veh, BIVM-ERCC5 /// ERCC5 / RFU, ILF3 / Fold change vs veh, ILF3 / RFU 11762660_at / Fold change /veh 11762660_at / RFU VCAN (11757783_s_at) / Fold change /veh VCAN (11757783_s_at) / RFU DDX43 (11728927_at) / Fold change /veh DDX43 (11728927_at) / RFU KRT8 (11758188_x_at) / Fold change /veh KRT8 (11758188_x_at) / RFU NKD1 (11759106_at) / Fold change /veh NKD1 (11759106_at) / RFU SRD5A1 (11742802_a_at) / Fold change /veh SRD5A1 (11742802_a_at) / RFU TPSAB1 /// TPSB2 (11721975_s_at) / Fold change /veh TPSAB1 /// TPSB2 (11721975_s_at) / RFU GSTM3 (11746129_a_at) / Fold change /veh GSTM3 (11746129_a_at) / RFU IL23R (11737362_x_at) / Fold change /veh IL23R (11737362_x_at) / RFU TMEM51 (11727254_a_at) / Fold change /veh TMEM51 (11727254_a_at) / RFU PIWIL2 (11732686_x_at) / Fold change /veh PIWIL2 (11732686_x_at) / RFU ORM1 (11744905_x_at) / Fold change /veh ORM1 (11744905_x_at) / RFU CCDC152 (11743942_at) / Fold change /veh CCDC152 (11743942_at) / RFU ECM1 (11717891_a_at) / Fold change /veh ECM1 (11717891_a_at) / RFU IL23R (11748794_a_at) / Fold change /veh IL23R (11748794_a_at) / RFU TNFAIP8L3 (11732012_x_at) / Fold change /veh TNFAIP8L3 (11732012_x_at) / RFU MBOAT4 (11741988_at) / Fold change /veh MBOAT4 (11741988_at) / RFU 11764193_at / Fold change /veh 11764193_at / RFU TMEM53 (11763286_at) / Fold change /veh TMEM53 (11763286_at) / RFU MAGEB2 (11727129_at) / Fold change /veh MAGEB2 (11727129_at) / RFU TMEM200A (11744735_a_at) / Fold change /veh TMEM200A (11744735_a_at) / RFU CCDC152 (11751479_a_at) / Fold change /veh CCDC152 (11751479_a_at) / RFU FAM211A (11726209_a_at) / Fold change /veh FAM211A (11726209_a_at) / RFU RGS16 (11746705_a_at) / Fold change /veh RGS16 (11746705_a_at) / RFU VCAN (11755009_s_at) / Fold change /veh VCAN (11755009_s_at) / RFU RHOB (11743442_s_at) / Fold change /veh RHOB (11743442_s_at) / RFU RGS16 (11720943_a_at) / Fold change /veh RGS16 (11720943_a_at) / RFU RGS16 (11720944_at) / Fold change /veh RGS16 (11720944_at) / RFU, VPS4B / Fold change vs veh, VPS4B / RFU, CREB1 / Fold change vs veh, CREB1 / RFU, DNAJC13 / Fold change vs veh, DNAJC13 / RFU, GNAQ / Fold change vs veh, GNAQ / RFU, CDK5R1 / Fold change vs veh, CDK5R1 / RFU, ZRANB3 / Fold change vs veh, ZRANB3 / RFU, CUL4A / Fold change vs veh, CUL4A / RFU, CCNY / Fold change vs veh, CCNY / RFU, UFL1 / Fold change vs veh, UFL1 / RFU, COG3 / Fold change vs veh, COG3 / RFU, DIAPH2 / Fold change vs veh, DIAPH2 / RFU, SKA2 / Fold change vs veh, SKA2 / RFU, AFF3 / Fold change vs veh, AFF3 / RFU, LMF1 / Fold change vs veh, LMF1 / RFU, IPO11 / Fold change vs veh, IPO11 / RFU, DFFB / Fold change vs veh, DFFB / RFU, FOXP1 / Fold change vs veh, FOXP1 / RFU, CARD8 / Fold change vs veh, CARD8 / RFU, STRN3 / Fold change vs veh, STRN3 / RFU, ADK / Fold change vs veh, ADK / RFU, RASSF2 / Fold change vs veh, RASSF2 / RFU, WIPF1 / Fold change vs veh, WIPF1 / RFU, LARP1B / Fold change vs veh, LARP1B / RFU, RASA1 / Fold change vs veh, RASA1 / RFU, RB1 / Fold change vs veh, RB1 / RFU, PPFIA1 / Fold change vs veh, PPFIA1 / RFU, MAT2A / Fold change vs veh, MAT2A / RFU, CCT5 / Fold change vs veh, CCT5 / RFU, WDR92 / Fold change vs veh, WDR92 / RFU, CUX1 / Fold change vs veh, CUX1 / RFU, TTC7A / Fold change vs veh, TTC7A / RFU, TMEM135 / Fold change vs veh, TMEM135 / RFU, DEPTOR / Fold change vs veh, DEPTOR / RFU, CPM / Fold change vs veh, CPM / RFU, DNAJB6 / Fold change vs veh, DNAJB6 / RFU, CACNA2D3 / Fold change vs veh, CACNA2D3 / RFU, DTX4 / Fold change vs veh, DTX4 / RFU, TFCP2 / Fold change vs veh, TFCP2 / RFU, GMCL1 /// GMCL1P1 / Fold change vs veh, GMCL1 /// GMCL1P1 / RFU, AEBP2 / Fold change vs veh, AEBP2 / RFU, SNHG1 /// SNORD22 /// SNORD25 /// SNORD26 /// SNORD27 /// SNORD28 /// SNORD29 /// SNORD31 / Fold change vs veh, SNHG1 /// SNORD22 /// SNORD25 /// SNORD26 /// SNORD27 /// SNORD28 /// SNORD29 /// SNORD31 / Fold change (Aza/veh), C12orf56 (ProbeSet 11735607_a_at) / Fold change (ACY-1035/veh), C12orf56 (ProbeSet 11735607_a_at) / Fold change (Aza/veh), FGFR1OP (ProbeSet 11751329_s_at) / Fold change (ACY-1035/veh), FGFR1OP (ProbeSet 11751329_s_at) / Fold change (Aza/veh), VPS36 (ProbeSet 11739960_a_at) / Fold change (ACY-1035/veh), VPS36 (ProbeSet 11739960_a_at) / RFU SYPL1 (11715823_x_at) / Fold change /veh SYPL1 (11715823_x_at) / RFU IGFBP7 (11715501_s_at) / Fold change /veh IGFBP7 (11715501_s_at) / RFU REEP3 (11722064_at) / Fold change /veh REEP3 (11722064_at) / RFU IGLL1 (11728026_x_at) / Fold change /veh IGLL1 (11728026_x_at): dose or concentration left out as unconfirmed
Settings: MV-4-11 cells, 48 hours

Nc1ncn([C@@H]2O[C@H](CO)[C@@H](O)[C@H]2O)c(=O)n1 [azacitidine]
RFU KRTAP10-2 (11738614_at): 10.93 RFU
